From ChEMBL document CHEMBL5120917, “Ferroptosis Inhibitory Aromatic Abietane Diterpenoids from Ajuga decumbens and Structural Revision of Two 3,4-Epoxy Group-Containing Abietanes” (J Nat Prod, 2022)
Activity calls are given as the source filed them. The calls are words filed in the database; no cut-off is given here.

What was measured:
[1] = Cytotoxicity against […] HT-22 cells assessed as reduction in cell viability measured after 24 hrs by MTT assay; format: toxicity, cell-based; conditions: mouse
HT-22 [2] = assay: Anti-ferroptotic activity against RSL3-induced ferroptosis in […] HT-22 cells assessed as cell viability measured after 24 hrs by MTT assay; format: functional, cell-based; conditions: Mus musculus, HT-22, 24 h
[3] = Antioxidant activity assessed as DPPH radical scavenging activity at 100 uM measured for 30 mins by microplate spectrophotometric analysis; format: functional
HT-22 [4] = assay: Reduction in lipid ROS accumulation in RSL-3 treated […] HT-22 cells assessed as fluorescence intensity incubated for 4 hrs by C11-BODIPY staining based flow cytometry analysis; format: functional, cell-based; conditions: Mus musculus, dose 25-100 nM
HT-22 [5] = assay: Reversal of RSL-3 induced PTGS2 mRNA expression in […] HT-22 cells incubated for 4 hrs by […] analysis; format: functional, cell-based; conditions: Mus musculus, dose 25-100 nM
HT-22 [6] = assay: Reduction in cytosolic ROS accumulation in RSL-3 treated […] HT-22 cells assessed as fluorescence intensity incubated for 4 hrs by carboxy-H2DCFDA staining based flow cytometry analysis; format: functional, cell-based; conditions: Mus musculus, dose 25-100 nM
HT-22 [7] = assay: Anti-ferroptotic activity against RSL3-induced ferroptosis in […] HT-22 cells assessed as cell viability at 1 uM measured after 24 hrs by MTT assay; format: functional; conditions: read-out: Activity
[8] = Metal chelating activity assessed as Fe2+-compound complex formation by UV-visible spectrophotometry

SMILES | CC50 at 24 h [1] [nM] | EC50 (HT-22 [2]) [nM] | Activity [3] | viability at 1 µM (HT-22 [7]) [%] | also measured
C=CCc1c(O)c2c(c(O)c1OC)[C@@]1(C)CCC(C)=C(C)C1=CC2=O | > 40000 | 308 | Active |  | 
CC1=C(C)C2=CC(=O)c3c(c(O)c4occ(C)c4c3O)[C@@]2(C)CC1 | > 40000 | 56.1 | Active |  | Activity (HT-22 [4]): Active; Activity (HT-22 [5]): Active; Activity (HT-22 [6]): Active
C[C@@H]1COc2c(O)c3c(c(O)c21)C(=O)C=C1[C@]3(C)CC[C@]2(C)O[C@]12C | > 40000 | 406 | Active |  | 
Cc1coc2c(O)c3c(c(O)c12)C(=O)C=C1[C@]3(C)CC[C@]2(C)O[C@]12C | > 40000 | 348 | Active |  | 
CC1=C(C)C2=CC(=O)[C@@]34O[C@@]3(C(=O)c3occ(C)c3C4=O)[C@@]2(C)CC1 | > 40000 |  |  | < 50 | 
CC1=C(C)C2=CC(=O)c3c(c(O)c4oc(C)cc4c3O)[C@@]2(C)CC1 | > 40000 | 526 | Active |  | 
CC1=C(C)C2=CC(=O)[C@@]34O[C@@]3(C(=O)c3oc(C)cc3C4=O)[C@@]2(C)CC1 | > 40000 |  |  | < 50 | 
CC1=C(C)C2=CC(=O)c3c(O)c4c(c(O)c3[C@@]2(C)CC1)OC[C@H]4C | > 40000 | 76.2 | Active |  | 
CCOC(=O)c1ccc(NC2CCCCC2)c(N)c1 |  | 81.2 |  |  | 
CC(=O)N(O)CCCCCNC(=O)CCC(=O)N(O)CCCCCNC(=O)CCC(=O)N(O)CCCCCN |  |  |  |  | Activity [8]: Active
CC1=C(C)C2=CC(=O)c3c(O)c4c(c(O)c3[C@@]2(C)CC1=O)OC[C@H]4C | > 40000 |  | Active | < 50 | 
C[C@@H]1COc2c(O)c3c(c(O)c21)C(=O)CC1C(C)(C)CCC[C@]31C (some centres not stated) | > 40000 |  |  | < 50 | 
